According to US20250134952A1, “METHODS FOR IMPROVING THE EFFICACY OF HDAC INHIBITOR THERAPY AND PREDICTING THE RESPONSE TO TREATMENT WITH HDAC INHIBITOR” (INSTITUT NATIONAL DE LA SANTÉ ET DE LA RECHERCHE MÉDICALE, priority 2021, published 2025):

Key:
breast cancer cell lines = experiment: Preliminary experiments: lowest dose of TSA inducing cellular responses; assay type: cell-based, human
Description: To dissect the role of Tau in controlling chromatin we sought to perturb chromatin structure by inhibiting histone deacetylation with the pan-histone deacetylase-inhibitor trichostatin A (TSA). In our preliminary experiments we found the lowest dose of TSA inducing cellular responses was 100 nM and we used this concentration in all the following experiments. First, we evaluated cell death, apoptosis and cell cycle progression by flow cytometric analyses in the two cell lines (as above we just illustrate our results with MCF7 cells in the main paper). We tested the effect of TSA in the presence or absence of short hairpin RNAs (Tau and Control). After 48 hours there was a strong increase in the number of dead cells from less 2% to >50% in the Tau-knockdown cells and a lesser increase to 38% in sh-ctrl cells (FIG. 1). In agreement, apoptosis was measured at 48% and 30% respectively (FIG. 1C).

[1] = tested on: GAPDH promoter in MCF7shctrl cells; experiment: ChIP-qPCR of H3 acetylation and Tau occupancy on the GAPDH promoter; assay type: cell-based, human; details: 100 nM TSA, GAPDH transcription start site
Text: (A) Chromatin immunoprecipitations-qPCR analysis of H3 acetylation and Tau occupancy on the GAPDH promoter in MCF7shctrl cells in the indicated conditions. MCF7shctrl cells were subjected to cross-linking by 1% formaldehyde. Chromatin fragments were then immunoprecipitated using antibodies (Ab) against acetylated H3 (ac-H3) or Tau and analyzed by quantitative PCR for the presence of the GAPDH promoter. (B) Functional organization of the p21 promoter. (C) ChIP-qPCR analysis of H3 acetylation in MCF7shctrl or shTau cells or (D) Tau occupancy in MCF7shctrl cells on the p21 promoter. […] Chromatin fragments were then immunoprecipitated using antibodies (Ab) against acetylated H3 or Tau and analyzed by quantitative PCR for the presence of the GAL4 UAS promoter. Quantification of enrichment is represented as fold-enrichment relative to IgG. […]
To test this hypothesis, we next performed chromatin immunoprecipitations assays. […] Quantitative PCR analysis of input or immunoprecipitated DNA using acetylated H3 and Tau antibodies was carried out to detect different promoter regions. […] No change in the level of acetylated H3, nor Tau binding, were detected after TSA treatment (FIG. 3A). […] In addition, Tau was detected at the level of these regions in MCF7shctrl cells (≈4-fold enrichment) in absence or presence of TSA treatment (FIG. 3D).

[2] = tested on: HP1β clusters in Hela cells; experiment: GFP-HP1β clusters per nuclei, confocal microscopy; assay type: cell-based; details: TSA 300 nM, 24 h, control Hela cells
Description: (A) Single confocal sections of Hela cells transfected with […], with or without Tau4R or TauP301L and treated 24 h later with the TSA (300 nM) for 24 h. Tau C-terminus antibodies and GFP fluorescence were used to visualize total Tau protein and HP1β respectively. Representative images are shown. (B) Quantification of HP1β clusters per nuclei visualized as described previously and realized on three independent experiments. Data are mean±SD *P<0.05 ***P<0.001.
MCF7shctrl, MCF7shTau or transfected Hela cells with Tau4R and GFP-HP1α were fixed in 4% paraformaldehyde for 30 min at room temperature. Permeabilization was carried out in 0.2% Triton X-100 in phosphate-buffered saline for 10 min at room temperature. After 1 h saturation in 2% bovine serum albumin, immunostaining was performed using Tau antibody (recognizing the C-terminal domain of Tau). […] Nuclear staining was performed by adding 1/2000 DAPI in phosphate-buffered saline for 10 min. Slides were then analyzed with a Zeiss LSM710 confocal laser scanning microscope (60× magnification). Images were collected in the Z direction at 0.80 μm intervals and quantifications were realized using the Image J plug-in.
To this end, we first performed GST-pulldown analysis using purified core histones. As shown previously, Tau interacted specifically with core histones as detected by H3, H4, H2A and H2B antibodies (data not shown). […]

CC(/C=C/C(=O)NO)=C\[C@@H](C)C(=O)c1ccc(N(C)C)cc1 [TSA, 2,4-Heptadienamide, 7-[4-(dimethylamino)phenyl]-N-hydroxy-4,6-dimethyl-7-oxo-, (2E,4E,6R)-]
lowest dose of TSA inducing cellular responses (breast cancer cell lines): 100 nM | level of acetylated H3 and Tau binding after TSA treatment [1]: No change | number of HP1 clusters following TSA treatment [2]: decrease
